# In patent US20250188078A1, “SMALL MOLECULE INHIBITORS OF THE CRL4 UBIQUITIN LIGASE” (Cornell University, priority 2022, published 2025):
# Columns and labels:
# [1] = Dynamic light scattering (DLS) solubility assay; assay type: physicochemical; settings: normalized intensity ratio of 25 μM compound vs DMSO, in PBS
# Description: Dynamic light scattering (DLS) (see Table 1, column 3) is a tool for studying the diffusion behavior of macromolecules in solution. To profile compound solubility, DLS assay was developed for measuring aggregation of small molecule compounds. Compound stock solution was prepared in DMSO. Dilution series were made for each compound in DMSO to ensure a final 1× assay concentration range of 200 μM to 0.78 μM. For example, if the final DMSO concentration was 1%, compounds were prepared at 100× concentrations ranging from […] to 78 μM. Dilute compounds in PBS solution to final concentration. Place 60 μl/well in 96 well plates and 3 replicates for each sample. Data were collected using a DynaPro Plate Reader III (WYATT Technologies, Inc., USA). The instrument was adjusted to measure the optimal light scattering intensity according to the manufacturer's instructions. […] The ratio over 2 means (−) insoluble. The ratio below 2 means (+) soluble and around 2 means (+/−).
# [2] = molecular target: CUL4A-DDB1-BPB interaction (Homo sapiens (Human), UniProt Q16531); experiment: AlphaLISA in vitro binding assay, CUL4A and DDB1-BPB binding; settings: inhibition of CUL4A and DDB1-BPB binding
# Text: AlphaLISA IC50 (see Table 1, column 4) means the half maximal inhibitory concentration of compound that inhibits CUL4A and DDB1-BPB binding. Our lab established and optimized 384 well-based AlphaLISA in vitro binding assay for testing small molecule inhibitory activity. Small molecule libraries were screened for compounds that disrupt CUL4A-DDB1-BPB interaction using AlphaScreen detection beads (PerkinElmer, #AL112C and #6765300) following the manufacturer's protocol (https://www.perkinelmer.com/PDFs/downloads/GDE-Alphatech.pdf, hereby incorporated by reference in its entirety for all purposes). The 384-well assay plates (Greiner Bio-one, #781075) were read in Synergy Neo2 Hybrid Multi-Mode Reader (BioTek). The IC50 was calculated by Prism 8 XY analysis nonlinear regression (curve fit-Log(inhibitor) vs response).
# [3] = test system: CUL4A^high MDA-MB-468 breast cancer cells; experiment: Cell killing in CUL4-high MDA-MB-468 cells (CellTiter Glo); assay type: cell-based; settings: Homo sapiens, 192 h; MDA-MB-468 cells, 8 days treatment; read-out: EC50 CUL4-High Cells (cell killing)
# Description: EC50 refers to concentration of compound that induces 50% killing of CUL4A^high MDA-MB-468 cells (see Table 1, column 6). CUL4A^high MDA-MB-468 breast cancer cells were seeded in 96 well plates. After 24 hours, cells were treated with DMSO or compounds. Change fresh medium and compounds. After 8 days treatment, cell viability was examined by using CellTiter Glo kit (Promega #7570) following the manufacturer's guidelines (https://www.promega.com/-/media/files/resources/protocols/technicalbulletins/0/celltiter-glo-luminescent-cell-viability-assay protocol.pdf?rev=0d95c232094b41daa06d0c110d1d916f&sc_lang=en, hereby incorporated by reference in its entirety for all purposes). EC50 concentration was calculated by Prism 8 XY analysis nonlinear regression (curve fit-Log(inhibitor) vs response). Lower EC50 indicates high cell killing potential in CUL4^high MDA-MB-468 cells.
# (§1) CUL4A^high MDA-MB-468, CUL4^low (T47D), and MCF7 breast cancer cells were seeded in 96 well plates separately. Cells were treated with DMSO, or from 0 to 20 μM compound respectively. Replace with fresh medium and compounds every 48 hours. After 8 days treatment, cell viability was examined by CellTiter Glo kit (Promega #7570). First, transfer the appropriate volume (10 ml for Cat. #G7570) of CellTiter-Glo® Buffer into the amber bottle containing CellTiter-Glo® Substrate to reconstitute the lyophilized enzyme/substrate mixture. This forms the CellTiter-Glo® Reagent. Second, add CellTiter-Glo® Reagent in an equal volume (100 μl per well for 96-well plates) to all wells. Mix contents for 2 minutes on an orbital shaker to induce cell lysis. Incubate at room temperature for 15 minutes to stabilize luminescent signal. Then record luminescence. EC50 concentration was calculated by Prism 8 XY analysis nonlinear regression (curve fit-Log(inhibitor) vs response).
# [4] = test system: UV-induced CUL4-dependent DDB2 degradation in MEF-F-DDB2 cells; experiment: Cell-based assay for inhibition of UV-induced CUL4-dependent DDB2 degradation; design: key: (+) means that the normalized DDB2/α-tubulin ratio is higher in the compound treated sample than DMSO treated sample; (−) means that no change happens between compound treated sample with control sample; settings: DDB2/α-tubulin by Western blot
# Description: Cell-based assay for inhibition of UV-induced CUL4-dependent DDB2 degradation by small molecule CUL4 inhibitors (see Table 1, column 5). Briefly, MEF-F-DDB2 cells were seeded in 6-well plates. DMSO or indicated concentrations of compounds were added to MEF-F-DDB2 cells growing in serum-free medium. MEF-F-DDB2 cells were washed once with PBS and subsequently irradiated with a Philips TUV lamp (predominantly 254 nm) at a dose rate of 0.2 W/m^2. DMSO or compounds were added to MEF-F-DDB2 cells, and then cells were harvested. The cells were lysed, and equal amounts of proteins were resolved on SDS-PAGE gel and Flag-DDB2 levels were detected using anti-DDB2 (D4C4) rabbit antibody (Cell signaling, #5416S). α-tubulin (Proteintech, #66031-1-Ig) was used as an internal loading control. (+) means that the normalized DDB2/α-tubulin ratio is higher in the compound treated sample than DMSO treated sample. (−) means that no change happens between compound treated sample with control sample.
# [5] = test system: CUL4A^low T47D breast cancer cells; experiment: Cell killing in CUL4-low T47D cells (CellTiter Glo); assay type: cell-based; settings: Homo sapiens, 192 h; T47D cells, 8 days treatment; read-out: EC50 CUL4-Low Cells (cell killing)
# Description: EC50 indicates compound concentration can cause 50% cell killing in CUL4° ^w T47D cells (see Table 1, column 7). CUL4A^low T47D breast cancer cells were seeded in 96 well plate. […] Change fresh medium and compounds every 48 hours. After 8 days treatment, cell viability was examined by using CellTiter Glo kit (Promega #7570) following the manufacturer's guidelines (https://www.promega.com/-/media/files/resources/protocols/technical-bulletins/0/celltiter-glo-luminescent-cell-viability-assay-protocol.pdf?rev=0d95c232094b41daa06d0c110d1d916f&sc_lang=en, hereby incorporated by reference in its entirety for all purposes). EC50 concentration was calculated by Prism 8 XY analysis nonlinear regression (curve fit-Log(inhibitor) vs response). EC50 indicates cell killing potential in CUL4 low T47D cell line and the EC50 difference between CUL4^high and CUL4^low cells indicates the small molecule cause specific cell killing.
# as §1, with “Cells were treated with DMSO, or from 0 to 20 μM compound respectively.” left out
# Chain of CUL4A-DDB1-BPB interaction (Q16531 403-706): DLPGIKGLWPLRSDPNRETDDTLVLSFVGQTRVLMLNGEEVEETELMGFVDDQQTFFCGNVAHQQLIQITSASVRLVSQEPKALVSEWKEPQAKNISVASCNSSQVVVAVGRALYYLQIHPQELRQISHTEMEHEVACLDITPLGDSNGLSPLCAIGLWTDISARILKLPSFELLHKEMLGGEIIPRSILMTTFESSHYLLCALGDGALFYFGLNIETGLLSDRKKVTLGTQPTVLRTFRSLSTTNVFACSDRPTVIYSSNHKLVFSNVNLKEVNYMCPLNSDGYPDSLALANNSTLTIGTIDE
SMILES,Solubility (DLS Assay) [1],IC50 [2],AlphaLisa IC50 [2],EC50 [3],Degradation Inhibition (inhibition of UV-induced DDB2 degradation) [4],EC50 [5]
"CN(c1ccc(-c2nc(C(=O)O)cc3c2[nH]c2cc(F)c(F)cc23)cc1)S(=O)(=O)c1ccccc1 [PA1-7, 6,7-difluoro-1-(4-(N-methylphenylsulfonamido)phenyl)-9H-pyrido[3,4-b]indole-3-carboxylic acid]",-(insoluble),0.127 µM,,8.65 µM,,
"CN(c1ccc(-c2nc(C(=O)O)cc3c2[nH]c2cc(C#N)ccc23)cc1)S(=O)(=O)c1ccccc1 [PA1-9, 7-cyano-1-(4-(N-methylphenylsulfonamido)phenyl)-9H-pyrido[3,4-b]indole-3-carboxylic acid]",-(insoluble),0.085 µM,,7.87 µM,+,
"O=C(O)c1cc2c([nH]c3cc(F)ccc32)c(-c2ccc(OCc3ccccc3)cc2)n1 [PA1-11, 1-(4-benzyloxyphenyl)-7-fluoro-9H-pyrido[3,4-b]indole-3-carboxylic acid]",-(insoluble),5.84 µM,,9.9 µM,−,
"O=C(O)c1cc2c([nH]c3cc(F)ccc32)c(-c2ccc(OCc3ccccn3)cc2)n1 [PA1-11H, 7-fluoro-1-(4-(pyridin-2-ylmethoxy)phenyl)-9H-pyrido[3,4-b]indole-3-carboxylic acid]",-(insoluble),,,,−,
"CN(c1ccc(-c2nc(C(=O)O)cc3c2[nH]c2cc(F)ccc23)c(F)c1)S(=O)(=O)c1ccccc1 [PA1-12, 1-[4-[benzenesulfonyl(methyl)amino]-2-fluoro-phenyl]-7-fluoro-9H-pyrido[3,4-b]indole-3-carboxylic acid]",-(insoluble),0.75 µM,,7.37 µM,+,
"CN1CCN(S(=O)(=O)N(C)c2ccc(-c3nc(C(=O)O)cc4c3[nH]c3cc(F)ccc34)cc2)CC1 [PA1-13A-3, 1-(4-(N,4-dimethylpiperazine-1-sulfonamido)phenyl)-7-fluoro-9H-pyrido[3,4-b]indole-3-carboxylic acid]",-(insoluble),0.45 µM,,7.25 µM,−,
"COC(=O)c1cc2c([nH]c3cc(F)cc(C)c32)c(-c2ccc(N(C)S(=O)(=O)c3ccccc3)cc2)n1 [PA1-14 ESTER, methyl 1-[4-[benzenesulfonyl(methyl)amino]phenyl]-7-fluoro-5-methyl-9H-pyrido[3,4-b]indole-3-carboxylate]",-(insoluble),,Neg,,−,

# More lines, main results first:
Solubility (DLS Assay) [1],IC50 [2],AlphaLisa IC50 [2],SMILES,EC50 [3],Degradation Inhibition (inhibition of UV-induced DDB2 degradation) [4],EC50 [5]
-(insoluble),3.43 ± 1.57 µM,,Cc1ccc(-c2nc(C(=O)O)cc3c2[nH]c2ccccc23)cc1 [PA2],,+,
+/−,1.41 ± 0.31 µM,,O=C(O)c1cc2c([nH]c3ccccc32)c(-c2ccc(F)cc2)n1 [PA3],,+,
-(insoluble),,Neg,"NC(=O)c1cc2c([nH]c3ccccc32)c(-c2ccc([N+](=O)[O-])cc2)n1 [PA9, 1-(4-nitrophenyl)-9H-pyrido[3,4-b]indole-3-carboxamide]",,+,
-(insoluble),2.01 ± 0.44 µM,,N#Cc1ccc(-c2nc(C(=O)O)cc3c2[nH]c2ccccc23)cc1 [PA19],,+,
,,Neg,"N#Cc1cc2c([nH]c3ccccc32)c(-c2ccc([N+](=O)[O-])cc2)n1 [PA42, 1-(4-nitrophenyl)-9H-pyrido[3,4-b]indole-3-carbonitrile]",73.1 µM,,> 100 µM
,1.31 ± 0.24 µM,,"CS(=O)(=O)Oc1ccc(-c2nc(C(=O)O)cc3c2[nH]c2ccccc23)cc1 [PA53, 1-(4-methylsulfonyloxyphenyl)-9H-pyrido[3,4-b]indole-3-carboxylic acid]",27.5 µM,,69.5 µM
,1.22 ± 0.35 µM,,"O=C(O)c1cc2c([nH]c3ccccc32)c(-c2ccc(S(=O)(=O)Cc3ccccc3)cc2)n1 [PA67, 1-(4-benzylsulfonylphenyl)-9H-pyrido[3,4-b]indole-3-carboxylic acid]",53.8 µM,,> 100 µM
-(insoluble),0.36 ± 0.04 µM,,CS(=O)(=O)c1ccc(-c2nc(C(=O)O)cc3c2[nH]c2ccc(F)cc23)cc1 [PA71],,−,
-(insoluble),1.83 ± 0.09 µM,,COc1ccc2[nH]c3c(-c4ccc(S(C)(=O)=O)cc4)nc(C(=O)O)cc3c2c1 [PA74],,+,
,1.39 ± 0.43 µM,,"CN(c1ccc(-c2nc(C(=O)O)cc3c2[nH]c2ccccc23)cc1)S(C)(=O)=O [PA75, 1-[4-[methyl(methylsulfonyl)amino]phenyl]-9H-pyrido[3,4-b]indole-3-carboxylic acid]",38.7 µM,,64 µM
